The values below come from patent publication US10399968B2, “Hydroxyalkyl thiadiazole derivatives” (Daiichi Sankyo Company, Limited, priority 2015, dated 2019).

Data set [1] is described as follows: Change of weight when relative humidity varied stepwise. In kind it is physicochemical. The protocol:
The Form I thus obtained was characterized by i) the diffraction pattern obtained from powder X-ray diffraction analysis (CuK, λ=1.54 Å, scan rate=20°/min) (FIG. 2) and ii) the thermogravimetric analysis pattern (TG/DTA pattern) obtained from measurement of sample (3 mg) at heating rate of about 10° C./minute (FIG. 3). […] Further, the pattern of change of weight of the sample was shown (FIG. 4), which was observed when relative humidity was varied stepwise.
The thermogravimetric analysis pattern (TG/DTA pattern) obtained from measurement of sample (3 mg) at heating rate of about 10° C./minute is as depicted in FIG. 6. […] Further, the pattern of change of weight of the sample was shown in FIG. 7, which was observed when relative humidity was varied stepwise.

The next data set relates to S. aureus ATCC 29213. The experiment in a line: Susceptibility of bacteria, broth microdilution MIC. In kind it is cell-based. The note with it: Staphylococcus aureus, ATCC29213. The protocol:
The antibacterial activity of the compounds of the present invention was tested by the broth microdilution method. The assay was carried out according to the CLSI guidelines for managing the procedures of susceptibility tests: “M7-A7 Methods for Dilution Antimicrobial Susceptibility Tests for Bacteria That Grow Aerobically; Approved Standard-Seventh Edition (2006)”. Test strains were grown on appropriate agar plates overnight. A broth containing the test compound diluted serially 2-fold and diluents were dispensed at 100 μL to each well of a 96-well microplate. As a growth control, a well with a broth not containing the test compound was also prepared. Colonies grown on the plates were suspended in saline, adjusted to 0.5 McFarland (OD625=0.08 to 0.10) using a colorimeter, and then diluted 10-fold with saline. The bacterial suspension was inoculated at 4 μL into each well of the microplate using a bacterial suspension inoculation apparatus. The inoculated microplate was incubated at 35° C. overnight (about 20 hours). The growth condition was observed by the naked eye, and the minimum concentration to inhibit bacterial proliferation was defined as a minimum inhibitory concentration (MIC). The MICs of compounds disclosed herein for E. faecium, Streptococcus pneumoniae and Haemophilus influenzae are shown in Table 2, while for S. aureus in Table 3.
A general note: Broth dilution looks for growth in wells or tubes with falling amounts of substance.

The subject of data set [2] is Clostridium difficile ATCC 43255. In words: Susceptibility of Clostridium difficile, agar dilution MIC. The note with it: Clostridioides difficile, ATCC43255, anaerobic. It is filed as cell-based. The protocol: The antibacterial activity of the compounds of the present invention against Clostridium difficile clinical isolates was tested by the agar dilution method. The assay was carried out according to the CLSI guidelines for managing the procedures of susceptibility tests “M11-A8, Methods for Antimicrobial Susceptibility Testing of Anaerobic Bacteria; Approved Standard-Eighth Edition. CLSI document (2012)”.
The test strains were spread on supplemented Brucella agar (SBA) plates and grown at 36° C. under anaerobic condition for 42 to 48 hours. The test compound dilutions were prepared with Brucella broth and SBA plates containing dilution of test compound were prepared. As an anaerobic growth control, plates not containing the test compound were also prepared. Colonies grown on plates were suspended with Brucella broth to adjust the turbidity to 0.5 McFarland using a densitometer. Suspension (1-2 μL) of the test strains was inoculated onto each agar surface by using a bacterial suspension inoculation apparatus. After anaerobic incubation at 36° C. for 42 to 48 hours, absence and presence of growth of each strain were examined with unaided eye. The MIC was determined at which a marked reduction occurs in the appearance of growth on the test plate as compared to that of growth on the anaerobic control plates.

Data set [3] can be described thus: Oral bioavailability (BA) in rats. It is filed as in vivo. The settings on record: male, SD, blood; Rat, 2 mg/kg oral vs jugular vein. How it is done:
To SD male rats (7 week-old) fasted overnight, a solution of the test compound Captisol® was administered into the jugular vein (3 animals) and a solution of Lutrol® F68 was administered orally (3 animals). The dose of the test compounds was 2 mg/kg body weight of the rat for both administration routes. The amount of Captisol® used was 0.36 mg/kg body weight of the rat. The amount of Lutrol® F68 used was 0.02 mg/kg body weight of the rat. The BA value was calculated by the formula below using the integration value (AUCiv(0-∞)) of the blood concentration extrapolated from time 0 to infinity after administration of both test compounds. The greater a BA value of the compound shown, the higher the oral bioavailability is.

Data set [4] is described as follows: Oral bioavailability (BA) in monkeys. It is filed as in vivo, Macaca fascicularis. The note with it: male, cynomolgus monkey, blood, 1 mg/kg oral vs jugular vein. The protocol: To male Macaca fascicularis (3 or 4 year-old) fasted overnight, a solution of the test compound Captisol® was administered into the jugular vein (3 animals) and a solution of Lutrol® F68 was orally administered (3 animals). The dose of both test compounds was 1 mg/kg body weight of the monkey. The amount of Captisol® used was 0.18 mg/kg body weight of the monkey. The amount of Lutrol® F68 used was 0.02 mg/kg body weight of the monkey. The BA value was calculated by the formula below using the integration value (AUCiv(0-∞)) of the blood concentration extrapolated from time 0 to infinity after administration of both test compounds. BA(%)=[[(AUCpo(0-∞))/(dose po)]/[(AUCiv(0-∞))/(dose iv)]]×100 The greater a BA value of the compound shown, the higher the oral bioavailability is.

The target in data set [5] is Clostridium difficile DNA gyrase (Clostridioides difficile, UniProt Q18C89). In words: DNA supercoiling inhibition assay. In kind it is biochemical. The settings on record: supercoiling of relaxed pBR322 DNA, 60 minutes at 37° C. The protocol: DNA supercoiling assays (30 μL reaction) were performed in a buffer containing 15 mM Tris-HCl pH 7.5, 13% glycerol, 6 mM MgCl2, 0.1 mg/mL BSA, 70 mM KCl, 1 mM dithioerythritol, 400 ng of DNA substrate (relaxed pBR322 DNA) and different concentrations of test compounds and/or standards. The dilutions of test compounds and standards were prepared in 20% dimethylsulfoxide (DMSO) and added 3 μL/reaction. The reaction was started by adding 2 μL amounts of Clostridium difficile DNA gyrase into the reaction mixtures and reactions were allowed to proceed for 60 minutes at 37° C. A reaction was carried out by adding 3 μL of 20% DMSO instead of test compound as full reaction control, and another reaction was carried out by adding sterile water instead of the enzyme as no reaction control.
Clostridium difficile DNA gyrase, sequence (Q18C90 entry or part of it): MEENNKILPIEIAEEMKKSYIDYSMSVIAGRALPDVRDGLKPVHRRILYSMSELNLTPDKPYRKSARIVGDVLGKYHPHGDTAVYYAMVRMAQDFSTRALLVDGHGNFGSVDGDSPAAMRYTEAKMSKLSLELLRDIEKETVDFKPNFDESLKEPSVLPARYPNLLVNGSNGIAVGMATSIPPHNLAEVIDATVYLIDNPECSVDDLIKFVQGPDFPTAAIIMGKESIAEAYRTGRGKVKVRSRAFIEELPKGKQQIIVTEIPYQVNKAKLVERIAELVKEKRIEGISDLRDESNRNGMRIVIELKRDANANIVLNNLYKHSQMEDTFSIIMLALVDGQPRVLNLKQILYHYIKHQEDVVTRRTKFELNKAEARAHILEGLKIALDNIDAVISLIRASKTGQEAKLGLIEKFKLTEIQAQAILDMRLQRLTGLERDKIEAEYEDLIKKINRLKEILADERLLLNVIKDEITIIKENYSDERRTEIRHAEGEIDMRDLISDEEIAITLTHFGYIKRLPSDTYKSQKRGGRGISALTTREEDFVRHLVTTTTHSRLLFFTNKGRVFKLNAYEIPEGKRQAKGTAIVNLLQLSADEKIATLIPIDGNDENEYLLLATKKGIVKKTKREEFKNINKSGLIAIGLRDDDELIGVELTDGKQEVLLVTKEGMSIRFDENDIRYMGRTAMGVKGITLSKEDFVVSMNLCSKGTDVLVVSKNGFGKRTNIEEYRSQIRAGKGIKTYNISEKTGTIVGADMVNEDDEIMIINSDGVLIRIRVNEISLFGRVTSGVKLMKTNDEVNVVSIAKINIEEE
Clostridium difficile DNA gyrase, sequence (Q18C89 entry or part of it): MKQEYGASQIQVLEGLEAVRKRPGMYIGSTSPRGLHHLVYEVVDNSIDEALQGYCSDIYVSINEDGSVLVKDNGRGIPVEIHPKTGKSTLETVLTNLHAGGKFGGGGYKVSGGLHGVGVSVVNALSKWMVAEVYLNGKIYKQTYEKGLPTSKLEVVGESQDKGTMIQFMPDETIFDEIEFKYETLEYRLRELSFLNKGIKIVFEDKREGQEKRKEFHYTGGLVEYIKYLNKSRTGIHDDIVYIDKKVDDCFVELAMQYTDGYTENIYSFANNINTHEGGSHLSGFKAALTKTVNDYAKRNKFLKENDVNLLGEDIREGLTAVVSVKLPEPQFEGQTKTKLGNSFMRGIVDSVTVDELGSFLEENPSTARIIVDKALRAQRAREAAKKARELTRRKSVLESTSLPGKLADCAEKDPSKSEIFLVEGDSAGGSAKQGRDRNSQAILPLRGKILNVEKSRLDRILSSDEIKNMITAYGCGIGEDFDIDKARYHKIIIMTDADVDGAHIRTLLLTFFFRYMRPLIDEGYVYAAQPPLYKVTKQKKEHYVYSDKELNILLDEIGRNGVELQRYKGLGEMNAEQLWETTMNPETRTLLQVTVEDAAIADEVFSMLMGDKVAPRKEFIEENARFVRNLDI
Reactions were stopped by the addition of 5 μL of 6×loading dye and were analyzed by electrophoresis through 1.0% agarose gels with 1×TAE running buffer. Gels were run at 60 V for 3 hours, stained with EtBr, and visualized by Gel Doc system (BioRad). Intensity of the supercoiled DNA bands was quantified, and the IC50 of Clostridium difficile DNA gyrase was calculated using Graph Pad Prism.

The next data set relates to E. faecium ATCC 29212. The experiment in a line: Susceptibility of bacteria, broth microdilution MIC. In kind it is cell-based. The settings on record: Enterococcus faecium, ATCC29212. How it is done: (§1) The antibacterial activity of the compounds of the present invention was tested by the broth microdilution method. The assay was carried out according to the CLSI guidelines for managing the procedures of susceptibility tests: “M7-A7 Methods for Dilution Antimicrobial Susceptibility Tests for Bacteria That Grow Aerobically; Approved Standard-Seventh Edition (2006)”. Test strains were grown on appropriate agar plates overnight. A broth containing the test compound diluted serially 2-fold and diluents were dispensed at 100 μL to each well of a 96-well microplate. As a growth control, a well with a broth not containing the test compound was also prepared. Colonies grown on the plates were suspended in saline, adjusted to 0.5 McFarland (OD625=0.08 to 0.10) using a colorimeter, and then diluted 10-fold with saline. The bacterial suspension was inoculated at 4 μL into each well of the microplate using a bacterial suspension inoculation apparatus. The inoculated microplate was incubated at 35° C. overnight (about 20 hours). The growth condition was observed by the naked eye, and the minimum concentration to inhibit bacterial proliferation was defined as a minimum inhibitory concentration (MIC).

Data set [6] deals with Haemophilus influenzae ATCC 49247. The description is as above. It is filed as cell-based. The note with it: ATCC49247. How it is done: as §1
Data set [7] concerns Streptococcus pneumoniae ATCC 49619. The description is as above. It is filed as cell-based. The note with it: ATCC49619. The protocol:
as §1

The nature of data set [8]: Solubility in water (JP1 / JP2 fluids). In kind it is physicochemical. The note with it: thermodynamic from solid. How it is done:
A 10 mmol/L solution of the test compound was prepared in DMSO and dispensed 100 μL of 10 mmol/L DMSO stock solutions into labeled glass tubes in duplicate, one for Japanese Pharmacopeia First Fluid (JP1) and second for Japanese Pharmacopeia Second Fluid (JP2). After evaporation of DMSO from each tube, 500 μL of JP1 and JP2 fluid were added in each tube, respectively. These tubes were sonicated for 1 minute and placed on shaker for 30 minutes with an interval of 30 seconds at every 5 minute. Tubes were placed in dark at room temperature for 1 hour and solution was filtered through membrane filter. The filtrate was diluted 2-fold and 10-fold. The resulting test solutions was analyzed and quantified against the standards using UPLC (standard preparation—10 mmol/L solution in DMSO is serially diluted with 50% aqueous acetonitrile solution to prepare 2 solutions; 100 μmol/L standard solution and 5 μmol/L standard solutions).

Another data set concerns Staphylococcus aureus. In words: Neutropenic mouse thigh or calf muscle infection model. The settings on record: neutropenic mice, compared with linezolid. In kind it is in vivo. The source says: After culture in broth medium (i) suitable diluent of a bacterial suspension of the Staphylococcus aureus strain, or (ii) equivalent mixture of suitable diluent of a bacterial suspension of the Enterococcus faecium strain and a 10% mucin suspension were used as the inoculum. The bacterial suspension was inoculated under anesthesia with a ketamine-xylazine mixture into the thigh or calf muscle of Swiss albino mice or ICR mice (4- to 6-week-old) compromised by the cyclophosphamide administration. The drug was administered to the mice 1 to 8 times at an interval of 3 to 24 hours. The number of bacteria in the thigh or calf muscle was counted for the non-treated group immediately before initial administration of the drug (pre-control), for the non-treated group (post-control) and for the drug-administered group on the next day of administration of the drug and infection. A change in the number of bacteria in the thigh or calf muscle was used as an index of therapeutic effect.

Molecules are shown by their SMILES. Values after ≈ are worked out from the molar mass of the structure shown. Like-named read-outs stand apart in the source and are kept apart here.

With `CCc1[nH]c(C(=O)N[C@@H]2CCN(c3nnc(C(C)(C)O)s3)C[C@@H]2OC)nc1Cl` [Form I, 4-chloro-5-ethyl-N-{(3S,4R)-1-[5-(2-hydroxypropan-2-yl)-1,3,4-thiadiazol-2-yl]-3-methoxypiperidin-4-yl}-1H-imidazole-2-carboxamide], in [1], the change of weight was at most 0.3%.

Consider `CCc1[nH]c(C(=O)N[C@@H]2CCN(c3nnc(C(C)(C)O)s3)C[C@@H]2OC)nc1Cl` [Form II, 4-chloro-5-ethyl-N-{(3S,4R)-1-[5-(2-hydroxypropan-2-yl)-1,3,4-thiadiazol-2-yl]-3-methoxypiperidin-4-yl}-1H-imidazole-2-carboxamide], for which the “weight change due absorption or desorption of moisture” value in data set [1] was “no weight change”.

As for `CCc1[nH]c(C(=O)N[C@@H]2CCN(c3nnc(C(C)O)s3)C[C@@H]2OC)nc1Cl` (mixture of isomers) [Compound No. 3, 4-Chloro-5-ethyl-N-{(3S,4R)-1-[5-(1-hydroxyethyl)-1,3,4-thiadiazol-2-yl]-3-methoxypiperidin-4-yl}-1H-imidazole-2-carboxamide], the MIC is 0.5 µg/mL against S. aureus ATCC 29213 and 0.125 µg/mL in data set [2]. Also, the bioavailability (usually dose-corrected exposure relative to a reference, in per cent) in data set [3] was determined as 51%; in data set [4], 100%.

As for `CCc1[nH]c(C(=O)N[C@@H]2CCN(c3nnc([C@@H](C)O)s3)C[C@@H]2OC)nc1Cl` (single isomer, unassigned) [Compound No. 4], the midpoint of inhibition in data set [5], the IC50, lay at 14.5 nM. For the same compound, the MIC was determined as 0.25 µg/mL (≈ 0.603 µM) against E. faecium ATCC 29212; 1 µg/mL (≈ 2.41 µM) in [6]; 0.25 µg/mL (≈ 0.603 µM) in [7]; 0.5 µg/mL (≈ 1.21 µM) in the data set on S. aureus ATCC 29213; 0.06 µg/mL (≈ 0.145 µM) in data set [2]. Further, the solubility – broadly, the dissolved amount per volume that the medium holds – at 30 min was 612 µg/mL (≈ 1470 µM) in data set [8] (Japanese Pharmacopeia First Fluid (JP1), pH 1.2, simulated gastric fluid, read-out: Solubility JP1) and 304 µg/mL (≈ 733 µM) in data set [8] (Japanese Pharmacopeia Second Fluid (JP2), pH 6.8, aqueous buffer, read-out: Solubility JP2). The bioavailability in [4] stood at 92%. In addition, in the data set on Staphylococcus aureus, the “therapeutic effect against Staphylococcus aureus (number of bacteria in thigh or calf muscle)” value was “equivalent to or higher than linezolid”.
